Results: US9561231B2 (AbbVie Inc., priority 2012, dated 2017)

Columns and labels:
[1] = biological target: T1, first (BD1: amino acids K57-E168) bromodomain of BRD4 (Homo sapiens, UniProt O60885); experiment: TR-FRET bromodomain binding assay, BRD4 BD1; conditions: TR-FRET assay protocol (A-G, compound concentration range); Ki calculated from IC50, probe Kd and probe concentration; read-out: TR-FRET Binding Ki: BRD4 (BDI_K57-E168)
T1 construct: His-tagged first (BD1: amino acids K57-E168)
In short: (§1)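 His-tagged BRD4 bromodomain competed against an Alexa647-labeled BET-inhibitor probe by TR-FRET in 20 mM sodium phosphate pH 6.0, 50 mM NaCl, 1 mM EDTA, 0.01% Triton X-100, 1 mM DTT.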

[2] = biological target: T2, second (BD2: amino acids E352-E168) bromodomain of BRD4 (Homo sapiens, UniProt O60885); experiment: TR-FRET bromodomain binding assay, BRD4 BD2; conditions: TR-FRET assay protocol (A-G, compound concentration range); Ki calculated from IC50, probe Kd and probe concentration; read-out: TR-FRET Binding Ki: BRD4 (BDII_E352-M457)
T2 construct: protocol
In short: as §1

SMILES | Ki [1] [µM] | Ki [2] [µM]
Cn1nc(-c2ccccc2Oc2ccccc2)c(-c2cccc(C(=O)N3CCOCC3)c2)cc1=O [Example 175, 2-methyl-5-[3-(morpholin-4-ylcarbonyl)phenyl]-6-(2-phenoxyphenyl)pyridazin-3(2H)-one] | 2.95 | 2.49
Cn1nc(-c2ccccc2Oc2ccccc2)c(-c2cccc(C(=O)NC3CC3)c2)cc1=O [Example 177, N-cyclopropyl-3-[1-methyl-6-oxo-3-(2-phenoxyphenyl)-1,6-dihydropyridazin-4-yl]benzamide] | 4.17 | 1.07
CCN(CC)C(=O)c1cc(-c2cc(=O)n(C)nc2-c2ccccc2Oc2ccccc2)ccc1F [Example 181, N,N-diethyl-2-fluoro-5-[1-methyl-6-oxo-3-(2-phenoxyphenyl)-1,6-dihydropyridazin-4-yl]benzamide] | 3.95 | 6.16
Cn1nc(-c2ccccc2Oc2ccccc2)c(-c2ccc(C(=O)N3CCCC3)cc2)cc1=O [Example 183, 2-methyl-6-(2-phenoxyphenyl)-5-[4-(pyrrolidin-1-ylcarbonyl)phenyl]pyridazin-3(2H)-one] | 0.256 | 0.166
Cn1nc(-c2ccccc2Oc2ccccc2)c(-c2ccc(N3CCCCC3)nc2)cc1=O [Example 184, 2-methyl-6-(2-phenoxyphenyl)-5-[6-(piperidin-1-yl)pyridin-3-yl]pyridazin-3(2H)-one] | 2.14 | 1.96
CN(C)CCNC(=O)c1cccc(-c2cc(=O)n(C)nc2-c2ccccc2Oc2ccccc2)c1 [Example 186, N-[2-(dimethylamino)ethyl]-3-[1-methyl-6-oxo-3-(2-phenoxyphenyl)-1,6-dihydropyridazin-4-yl]benzamide] | 1.32 | 0.854
CN1CCN(c2ncc(-c3cc(=O)n(C)nc3-c3ccccc3Oc3ccccc3)cn2)CC1 [Example 188, 2-methyl-5-[2-(4-methylpiperazin-1-yl)pyrimidin-5-yl]-6-(2-phenoxyphenyl)pyridazin-3(2H)-one] | 0.67 | 1.13
COc1cc(-c2cc(=O)n(C)nc2-c2ccccc2Oc2ccccc2)ccc1F [Example 199, 5-(4-fluoro-3-methoxyphenyl)-2-methyl-6-(2-phenoxyphenyl)pyridazin-3(2H)-one] | > 13 | 5.66
CC(=O)c1cccc(-c2cc(=O)n(C)nc2-c2ccccc2Oc2ccccc2)c1 [Example 201, 5-(3-acetylphenyl)-2-methyl-6-(2-phenoxyphenyl)pyridazin-3(2H)-one] | 2.41 | 1.71
COc1ccc(-c2cc(=O)n(C)nc2-c2ccccc2Oc2ccccc2)cc1F [Example 203, 5-(3-fluoro-4-methoxyphenyl)-2-methyl-6-(2-phenoxyphenyl)pyridazin-3(2H)-one] | 3.51 | 1.52
Cc1cc(-c2cc(=O)n(C)nc2-c2ccccc2Oc2ccccc2)ccn1 [Example 205, 2-methyl-5-(2-methylpyridin-4-yl)-6-(2-phenoxyphenyl)pyridazin-3(2H)-one] | 2.83 | 2.97
CC(C)Cn1cc(-c2cc(=O)n(C)nc2-c2ccccc2Oc2ccccc2)cn1 [Example 206, 2-methyl-5-[1-(2-methylpropyl)-1H-pyrazol-4-yl]-6-(2-phenoxyphenyl)pyridazin-3(2H)-one] | 0.412 | 0.672
CN(C)c1cccc(-c2cc(=O)n(C)nc2-c2ccccc2Oc2ccccc2)c1 [Example 209, 5-[3-(dimethylamino)phenyl]-2-methyl-6-(2-phenoxyphenyl)pyridazin-3(2H)-one] | > 5.49 | 8.48
COc1ccc(F)c(-c2cc(=O)n(C)nc2-c2ccccc2Oc2ccccc2)c1 [Example 210, 5-(2-fluoro-5-methoxyphenyl)-2-methyl-6-(2-phenoxyphenyl)pyridazin-3(2H)-one] | 9.87 | 15.2
Cc1ccc(-c2cc(=O)n(C)nc2-c2ccccc2Oc2ccccc2)o1 [Example 211, 2-methyl-5-(5-methylfuran-2-yl)-6-(2-phenoxyphenyl)pyridazin-3(2H)-one] | 2.15 | 1.52

More lines, now with the values ahead:

Ki [1] [µM] | Ki [2] [µM] | SMILES
3.66 | 2.08 | Cc1nnc(-c2cccc(-c3cc(=O)n(C)nc3-c3ccccc3Oc3ccccc3)c2)o1 [Example 176, 2-methyl-5-[3-(5-methyl-1,3,4-oxadiazol-2-yl)phenyl]-6-(2-phenoxyphenyl)pyridazin-3(2H)-one]
3.34 | 4.54 | Cn1nc(-c2ccccc2Oc2ccccc2)c(-c2ccc(S(=O)(=O)N3CCCC3)cc2)cc1=O [Example 178, 2-methyl-6-(2-phenoxyphenyl)-5-[4-(pyrrolidin-1-ylsulfonyl)phenyl]pyridazin-3(2H)-one]
0.923 | 0.488 | Cn1nc(-c2ccccc2Oc2ccccc2)c(-c2ccc(N3CCOCC3)nc2)cc1=O [Example 179, 2-methyl-5-[6-(morpholin-4-yl)pyridin-3-yl]-6-(2-phenoxyphenyl)pyridazin-3(2H)-one]
0.531 | 0.174 | Cn1nc(-c2ccccc2Oc2ccccc2)c(-c2ccc(C(=O)NCc3ccccc3)cc2)cc1=O [Example 182, N-benzyl-4-[1-methyl-6-oxo-3-(2-phenoxyphenyl)-1,6-dihydropyridazin-4-yl]benzamide]
0.832 | 0.324 | Cn1nc(-c2ccccc2Oc2ccccc2)c(-c2ccc(C(=O)NC3CCCCC3)cc2)cc1=O [Example 185, N-cyclohexyl-4-[1-methyl-6-oxo-3-(2-phenoxyphenyl)-1,6-dihydropyridazin-4-yl]benzamide]
4.95 | 2.25 | Cn1nc(-c2ccccc2Oc2ccccc2)c(-c2ccc(CNc3ccccc3)cc2)cc1=O [Example 187, 2-methyl-6-(2-phenoxyphenyl)-5-{4-[(phenylamino)methyl]phenyl}pyridazin-3(2H)-one]
3.14 | 1.48 | COC(=O)Cc1ccc(-c2cc(=O)n(C)nc2-c2ccccc2Oc2ccccc2)cc1 [Example 189, methyl{4-[1-methyl-6-oxo-3-(2-phenoxyphenyl)-1,6-dihydropyridazin-4-yl]phenyl}acetate]
6.56 | 2.42 | CCOc1cncc(-c2cc(=O)n(C)nc2-c2ccccc2Oc2ccccc2)c1 [Example 190, 5-(5-ethoxypyridin-3-yl)-2-methyl-6-(2-phenoxyphenyl)pyridazin-3(2H)-one]
1.04 | 0.395 | CN(C)c1ncc(-c2cc(=O)n(C)nc2-c2ccccc2Oc2ccccc2)cn1 [Example 192, 5-[2-(dimethylamino)pyrimidin-5-yl]-2-methyl-6-(2-phenoxyphenyl)pyridazin-3(2H)-one]
0.664 | 0.317 | Cn1nc(-c2ccccc2Oc2ccccc2)c(-c2cccnc2)cc1=O [Example 195, 2-methyl-6-(2-phenoxyphenyl)-5-(pyridin-3-yl)pyridazin-3(2H)-one]
1.08 | 0.67 | Cc1ccc(-c2cc(=O)n(C)nc2-c2ccccc2Oc2ccccc2)cn1 [Example 196, 2-methyl-5-(6-methylpyridin-3-yl)-6-(2-phenoxyphenyl)pyridazin-3(2H)-one]
1.06 | 0.725 | COc1cccc(-c2cc(=O)n(C)nc2-c2ccccc2Oc2ccccc2)c1 [Example 197, 5-(3-methoxyphenyl)-2-methyl-6-(2-phenoxyphenyl)pyridazin-3(2H)-one]
0.344 | 0.971 | Cn1nc(-c2ccccc2Oc2ccccc2)c(-c2ccnc(N)c2)cc1=O [Example 200, 5-(2-aminopyridin-4-yl)-2-methyl-6-(2-phenoxyphenyl)pyridazin-3(2H)-one]
0.227 | 0.251 | CCNC(=O)c1ccc(-c2cc(=O)n(C)nc2-c2ccccc2Oc2ccccc2)cc1 [Example 202, N-ethyl-4-[1-methyl-6-oxo-3-(2-phenoxyphenyl)-1,6-dihydropyridazin-4-yl]-benzamide]
1.02 | 1.96 | Cc1c(-c2cc(=O)n(C)nc2-c2ccccc2Oc2ccccc2)cnn1C [Example 204, 5-(1,5-dimethyl-1H-pyrazol-4-yl)-2-methyl-6-(2-phenoxyphenyl)pyridazin-3(2H)-one]
7.02 | 11.8 | Cc1ccncc1-c1cc(=O)n(C)nc1-c1ccccc1Oc1ccccc1 [Example 207, 2-methyl-5-(4-methylpyridin-3-yl)-6-(2-phenoxyphenyl)pyridazin-3(2H)-one]
0.901 | 1.51 | Cn1nc(-c2ccccc2Oc2ccccc2)c(-c2ccc3c(ccn3C)c2)cc1=O [Example 208, 2-methyl-5-(1-methyl-1H-indol-5-yl)-6-(2-phenoxyphenyl)pyridazin-3(2H)-one]
0.0898 | 0.117 | CCn1cc(-c2cc(=O)n(C)nc2-c2ccccc2Oc2ccccc2)cn1 [Example 212, 5-(1-ethyl-1H-pyrazol-4-yl)-2-methyl-6-(2-phenoxyphenyl)pyridazin-3(2H)-one]
> 13 | 15.2 | COc1cnccc1-c1cc(=O)n(C)nc1-c1ccccc1Oc1ccccc1 [Example 213, 5-(3-methoxypyridin-4-yl)-2-methyl-6-(2-phenoxyphenyl)pyridazin-3(2H)-one]
> 13 | 10.4 | Cn1nc(-c2ccccc2Oc2ccccc2)c(-c2cc3ccccc3n2C)cc1=O [Example 214, 2-methyl-5-(1-methyl-1H-indol-2-yl)-6-(2-phenoxyphenyl)pyridazin-3(2H)-one]
0.719 | 0.462 | CN(C)c1cncc(-c2cc(=O)n(C)nc2-c2ccccc2Oc2ccccc2)c1 [Example 216, 5-[5-(dimethylamino)pyridin-3-yl]-2-methyl-6-(2-phenoxyphenyl)pyridazin-3(2H)-one]
